Test results published in patent US10168342B2, “Lipid probes and uses thereof” (THE SCRIPPS RESEARCH INSTITUTE, priority 2015, dated 2019).
Read-outs that look alike come from different tables or passages of the source.

How the values were obtained:
[1] = molecular target: AEA-DA lipid probe targets in Neuro2a cells (Mus musculus, UniProt P70699)
[2] = molecular target: T1, AEA-DA lipid probe targets in Neuro2a cells (Mus musculus, UniProt O08749)
T1 sequence (O08749 36-509): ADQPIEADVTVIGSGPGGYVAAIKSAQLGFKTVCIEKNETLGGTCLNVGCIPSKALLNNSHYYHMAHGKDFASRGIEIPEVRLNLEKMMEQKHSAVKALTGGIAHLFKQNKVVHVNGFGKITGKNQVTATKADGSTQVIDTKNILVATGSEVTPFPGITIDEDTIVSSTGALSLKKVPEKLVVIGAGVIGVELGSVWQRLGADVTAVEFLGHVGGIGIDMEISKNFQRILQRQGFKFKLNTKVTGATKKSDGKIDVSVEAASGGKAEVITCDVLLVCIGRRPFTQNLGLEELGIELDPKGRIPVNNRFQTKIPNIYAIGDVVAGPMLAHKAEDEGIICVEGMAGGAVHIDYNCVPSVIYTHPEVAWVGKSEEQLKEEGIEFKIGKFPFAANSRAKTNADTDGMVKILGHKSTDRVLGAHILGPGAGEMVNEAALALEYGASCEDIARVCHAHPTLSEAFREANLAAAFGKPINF

[3] = molecular target: T2, AEA-DA lipid probe targets in Neuro2a cells (Mus musculus, UniProt P09103)
T2 sequence (P09103 20-509): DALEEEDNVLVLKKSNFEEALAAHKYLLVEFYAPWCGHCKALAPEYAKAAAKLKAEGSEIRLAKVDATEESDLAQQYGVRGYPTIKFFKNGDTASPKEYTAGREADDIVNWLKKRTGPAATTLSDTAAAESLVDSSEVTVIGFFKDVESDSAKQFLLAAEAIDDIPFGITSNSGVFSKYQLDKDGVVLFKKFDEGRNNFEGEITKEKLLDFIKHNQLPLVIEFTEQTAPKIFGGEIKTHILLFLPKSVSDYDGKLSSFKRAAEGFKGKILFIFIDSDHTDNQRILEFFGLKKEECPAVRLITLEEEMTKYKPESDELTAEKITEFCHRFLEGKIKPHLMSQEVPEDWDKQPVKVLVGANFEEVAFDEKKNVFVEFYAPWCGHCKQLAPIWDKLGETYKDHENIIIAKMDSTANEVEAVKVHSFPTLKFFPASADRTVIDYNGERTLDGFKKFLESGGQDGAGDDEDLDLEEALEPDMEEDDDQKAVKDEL

[4] = molecular target: T3, AEA-DA lipid probe targets in Neuro2a cells (Mus musculus, UniProt Q8BH59)
T3 sequence (Q8BH59 1-677): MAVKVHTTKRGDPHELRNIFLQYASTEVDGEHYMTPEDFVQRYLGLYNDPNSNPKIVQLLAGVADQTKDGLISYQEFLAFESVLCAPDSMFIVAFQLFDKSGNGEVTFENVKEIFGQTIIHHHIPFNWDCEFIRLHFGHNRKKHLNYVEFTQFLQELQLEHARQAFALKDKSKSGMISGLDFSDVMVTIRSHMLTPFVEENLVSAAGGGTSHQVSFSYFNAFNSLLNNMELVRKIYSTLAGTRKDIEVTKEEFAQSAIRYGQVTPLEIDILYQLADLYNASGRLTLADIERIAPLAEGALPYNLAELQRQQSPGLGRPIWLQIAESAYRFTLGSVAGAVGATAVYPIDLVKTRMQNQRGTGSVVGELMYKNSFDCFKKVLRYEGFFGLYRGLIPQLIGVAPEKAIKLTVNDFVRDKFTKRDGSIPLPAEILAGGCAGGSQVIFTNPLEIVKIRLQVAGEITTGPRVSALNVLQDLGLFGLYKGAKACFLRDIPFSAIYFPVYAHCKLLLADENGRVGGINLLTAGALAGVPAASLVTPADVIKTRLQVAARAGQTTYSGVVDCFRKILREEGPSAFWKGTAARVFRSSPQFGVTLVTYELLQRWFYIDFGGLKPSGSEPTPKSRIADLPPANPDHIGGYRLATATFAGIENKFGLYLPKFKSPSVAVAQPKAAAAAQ

[5] = molecular target: AEA-DA lipid probe targets in Neuro2a cells (Mus musculus, UniProt O55143)
AEA-DA lipid probe targets in Neuro2a cells (Mus musculus, UniProt O55143), sequence (O55143 whole entry): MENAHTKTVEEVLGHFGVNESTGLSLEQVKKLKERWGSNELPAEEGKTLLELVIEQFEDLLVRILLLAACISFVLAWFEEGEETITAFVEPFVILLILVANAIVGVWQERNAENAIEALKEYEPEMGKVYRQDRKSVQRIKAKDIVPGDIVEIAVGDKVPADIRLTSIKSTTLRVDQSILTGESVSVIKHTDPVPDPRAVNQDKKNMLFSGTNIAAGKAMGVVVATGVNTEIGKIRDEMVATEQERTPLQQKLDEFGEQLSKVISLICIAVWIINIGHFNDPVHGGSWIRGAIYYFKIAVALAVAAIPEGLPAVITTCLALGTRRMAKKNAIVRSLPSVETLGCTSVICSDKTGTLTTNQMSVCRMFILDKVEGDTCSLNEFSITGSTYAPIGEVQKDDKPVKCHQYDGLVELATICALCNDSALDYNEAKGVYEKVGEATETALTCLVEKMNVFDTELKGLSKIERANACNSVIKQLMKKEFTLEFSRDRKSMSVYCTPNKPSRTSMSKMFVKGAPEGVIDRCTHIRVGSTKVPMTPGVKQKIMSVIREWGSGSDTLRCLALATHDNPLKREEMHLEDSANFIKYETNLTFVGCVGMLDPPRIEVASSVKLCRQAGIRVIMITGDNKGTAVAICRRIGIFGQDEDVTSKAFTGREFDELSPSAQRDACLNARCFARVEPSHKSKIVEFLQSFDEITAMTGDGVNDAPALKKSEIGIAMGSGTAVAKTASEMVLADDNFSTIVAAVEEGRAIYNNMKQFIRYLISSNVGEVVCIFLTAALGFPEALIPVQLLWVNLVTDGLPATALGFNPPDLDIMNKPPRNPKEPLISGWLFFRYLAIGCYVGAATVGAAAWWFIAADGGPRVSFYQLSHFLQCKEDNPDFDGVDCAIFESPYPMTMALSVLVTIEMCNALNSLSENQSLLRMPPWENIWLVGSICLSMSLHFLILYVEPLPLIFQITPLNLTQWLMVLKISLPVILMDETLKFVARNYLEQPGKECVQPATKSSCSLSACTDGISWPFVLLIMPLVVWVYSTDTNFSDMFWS

[6] = molecular target: T4, AEA-DA lipid probe targets in Neuro2a cells (Mus musculus, UniProt Q9CRD0)
T4 sequence (Q9CRD0 1-247): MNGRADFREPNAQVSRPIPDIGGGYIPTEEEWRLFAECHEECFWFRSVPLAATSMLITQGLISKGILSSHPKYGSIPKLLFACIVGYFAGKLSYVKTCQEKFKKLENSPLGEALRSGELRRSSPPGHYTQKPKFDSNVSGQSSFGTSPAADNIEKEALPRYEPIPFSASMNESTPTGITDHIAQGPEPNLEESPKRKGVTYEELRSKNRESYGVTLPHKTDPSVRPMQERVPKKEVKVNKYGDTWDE

[7] = molecular target: AEA-DA lipid probe targets in Neuro2a cells (Mus musculus, UniProt Q8VIK2)
AEA-DA lipid probe targets in Neuro2a cells (Mus musculus, UniProt Q8VIK2), sequence (Q8VIK2 whole entry): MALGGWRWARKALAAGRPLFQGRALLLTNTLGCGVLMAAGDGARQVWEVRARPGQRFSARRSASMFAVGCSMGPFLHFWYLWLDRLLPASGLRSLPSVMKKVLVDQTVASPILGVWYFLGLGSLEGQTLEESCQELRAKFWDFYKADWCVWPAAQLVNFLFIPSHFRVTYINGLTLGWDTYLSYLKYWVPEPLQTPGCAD

[8] = molecular target: T5, AEA-DA lipid probe targets in Neuro2a cells (Mus musculus, UniProt Q3V009)
T5 sequence (Q3V009 25-227): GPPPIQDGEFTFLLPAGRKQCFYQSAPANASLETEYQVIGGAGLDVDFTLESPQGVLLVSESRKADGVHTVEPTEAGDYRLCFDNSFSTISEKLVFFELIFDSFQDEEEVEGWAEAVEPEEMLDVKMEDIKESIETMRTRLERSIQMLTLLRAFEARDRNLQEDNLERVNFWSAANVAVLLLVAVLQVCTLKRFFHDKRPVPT

[9] = molecular target: T6, AEA-DA lipid probe targets in Neuro2a cells (Mus musculus, UniProt O08579); settings: for SILAC ratio, EMD (O08579): Neuro2a cells, AEA-DA probe
T6 sequence (O08579 1-259): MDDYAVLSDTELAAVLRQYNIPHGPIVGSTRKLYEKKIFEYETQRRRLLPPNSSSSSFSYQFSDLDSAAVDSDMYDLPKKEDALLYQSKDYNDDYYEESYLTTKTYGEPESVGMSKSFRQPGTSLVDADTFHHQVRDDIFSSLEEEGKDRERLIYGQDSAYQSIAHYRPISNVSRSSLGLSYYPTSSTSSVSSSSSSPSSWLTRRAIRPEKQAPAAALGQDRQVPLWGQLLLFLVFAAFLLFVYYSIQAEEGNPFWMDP

AEA-DA lipid probe targets in Neuro2a cells (Mus musculus, UniProt P70699), sequence (P70699 70-953): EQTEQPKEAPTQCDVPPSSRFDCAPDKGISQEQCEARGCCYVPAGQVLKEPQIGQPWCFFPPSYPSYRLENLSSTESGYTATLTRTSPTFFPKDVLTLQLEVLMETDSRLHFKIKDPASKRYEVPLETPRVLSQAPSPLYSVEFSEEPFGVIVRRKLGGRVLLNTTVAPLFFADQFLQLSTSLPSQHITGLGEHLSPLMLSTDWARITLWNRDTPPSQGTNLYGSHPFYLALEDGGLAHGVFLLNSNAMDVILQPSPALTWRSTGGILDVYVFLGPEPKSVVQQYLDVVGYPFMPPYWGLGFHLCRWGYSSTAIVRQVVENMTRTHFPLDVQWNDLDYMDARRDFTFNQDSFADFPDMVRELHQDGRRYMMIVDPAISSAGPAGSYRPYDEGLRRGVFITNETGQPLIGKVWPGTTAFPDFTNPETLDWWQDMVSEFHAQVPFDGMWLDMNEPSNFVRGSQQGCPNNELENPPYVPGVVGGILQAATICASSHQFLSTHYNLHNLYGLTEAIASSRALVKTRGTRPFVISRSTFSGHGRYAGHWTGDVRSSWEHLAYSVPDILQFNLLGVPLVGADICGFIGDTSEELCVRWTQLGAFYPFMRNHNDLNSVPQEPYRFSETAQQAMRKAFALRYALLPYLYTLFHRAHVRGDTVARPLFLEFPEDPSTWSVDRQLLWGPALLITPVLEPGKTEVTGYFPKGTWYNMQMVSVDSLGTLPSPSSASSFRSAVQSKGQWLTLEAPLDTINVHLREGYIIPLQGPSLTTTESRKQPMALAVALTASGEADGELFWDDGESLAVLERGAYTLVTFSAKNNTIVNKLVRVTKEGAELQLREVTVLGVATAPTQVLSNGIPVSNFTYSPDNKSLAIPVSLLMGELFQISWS

CCCCC/C=C\C/C=C\C/C=C\C/C=C\CCCC(=O)NCCO [AEA, anandamide, reference compound]
SILAC ratio Gaa ([1]; competitor 200 μM): 1.4 | SILAC ratio Dld ([2]; competitor 200 μM): 1.1 | SILAC ratio P4hb ([3]; competitor 200 μM): 1.2 | SILAC ratio Slc25a12 ([4]; competitor 200 μM): 1.1 | SILAC ratio, Atp2a2 ([5]; competitor 200 μM): 2.2 | SILAC ratio Ociad1 ([6]; competitor 200 μM): 1.6 | SILAC ratio Mpv17l2 ([7]; competitor 200 μM): 1.3 | SILAC ratio, Tmed1 ([8]; competitor 200 μM): 2.1 | SILAC ratio, EMD (O08579) ([9]; competitor 200 μM): 1.4 | SILAC ratio, Emd ([9]; competitor 200 μM): 1.4

O=C(/C=C/c1cccnc1)NCCCCC1CCN(C(=O)c2ccccc2)CC1 [FK-866, reference compound]
SILAC ratio Gaa ([1]; competitor 25 μM): 1.1 | SILAC ratio Dld ([2]; competitor 25 μM): 1.1 | SILAC ratio P4hb ([3]; competitor 25 μM): 1.4 | SILAC ratio Slc25a12 ([4]; competitor 25 μM): 1.1 | SILAC ratio, Atp2a2 ([5]; competitor 25 μM): 1.1 | SILAC ratio Ociad1 ([6]; competitor 25 μM): 1.1 | SILAC ratio Mpv17l2 ([7]; competitor 25 μM): 1.4 | SILAC ratio, Tmed1 ([8]; competitor 25 μM): 1.3 | SILAC ratio, EMD (O08579) ([9]; competitor 25 μM): 1.4 | SILAC ratio, Emd ([9]; competitor 25 μM): 1.4

CN1CCN(C(=O)c2c(-c3ccccc3)c3cc([N+](=O)[O-])ccc3n2C)CC1 [KML110, (1-Methyl-5-nitro-3-phenyl-1H-indol-2-yl)(4-methylpiperazin-1-yl)methanone]
SILAC ratio Gaa ([1]; competitor 25 μM): 1.6 | SILAC ratio Dld ([2]; competitor 25 μM): 1.3 | SILAC ratio P4hb ([3]; competitor 25 μM): 1.8 | SILAC ratio Slc25a12 ([4]; competitor 25 μM): 1.1 | SILAC ratio, Atp2a2 ([5]; competitor 25 μM): 1.3 | SILAC ratio Ociad1 ([6]; competitor 25 μM): 1.3 | SILAC ratio Mpv17l2 ([7]; competitor 25 μM): 1.5 | SILAC ratio, Tmed1 ([8]; competitor 25 μM): 1.6 | SILAC ratio, Emd ([9]; competitor 25 μM): 1.7

CN1CCN(C(=O)c2[nH]c3ccc([N+](=O)[O-])cc3c2-c2ccccc2)CC1 [MJN228, (4-Methylpiperazin-1-yl)(5-nitro-3-phenyl-1H-indol-2-yl)methanone]
SILAC ratio Gaa ([1]; competitor 10 μM): 1.0 | SILAC ratio Gaa ([1]; competitor 25 μM): 1.2 | SILAC ratio Gaa ([1]; competitor 50 μM): 1.4 | SILAC ratio Gaa ([1]; competitor 100 μM): 1.2 | SILAC ratio Dld ([2]; competitor 10 μM): 1.2 | SILAC ratio Dld ([2]; competitor 25 μM): 1.2 | SILAC ratio Dld ([2]; competitor 50 μM): 1.2 | SILAC ratio Dld ([2]; competitor 100 μM): 1.1 | SILAC ratio P4hb ([3]; competitor 10 μM): 1.3 | SILAC ratio P4hb ([3]; competitor 25 μM): 1.5 | SILAC ratio P4hb ([3]; competitor 50 μM): 2.0 | SILAC ratio P4hb ([3]; competitor 100 μM): 2.2 | SILAC ratio Slc25a12 ([4]; competitor 10 μM): 1.0 | SILAC ratio Slc25a12 ([4]; competitor 25 μM): 1.0 | SILAC ratio Slc25a12 ([4]; competitor 50 μM): 0.9 | SILAC ratio Slc25a12 ([4]; competitor 100 μM): 1.0 | SILAC ratio, Atp2a2 ([5]; competitor 10 μM): 1.3 | SILAC ratio, Atp2a2 ([5]; competitor 25 μM): 1.4 | SILAC ratio, Atp2a2 ([5]; competitor 50 μM): 1.4 | SILAC ratio, Atp2a2 ([5]; competitor 100 μM): 1.9 | SILAC ratio Ociad1 ([6]; competitor 10 μM): 1.1 | SILAC ratio Ociad1 ([6]; competitor 25 μM): 1.4 | SILAC ratio Ociad1 ([6]; competitor 50 μM): 1.1 | SILAC ratio Ociad1 ([6]; competitor 100 μM): 1.5 | SILAC ratio Mpv17l2 ([7]; competitor 10 μM): 1.1 | SILAC ratio Mpv17l2 ([7]; competitor 25 μM): 1.2 | SILAC ratio Mpv17l2 ([7]; competitor 50 μM): 1.0 | SILAC ratio Mpv17l2 ([7]; competitor 100 μM): 3.6 | SILAC ratio, Tmed1 ([8]; competitor 10 μM): 1.1 | SILAC ratio, Tmed1 ([8]; competitor 25 μM): 1.6 | SILAC ratio, Tmed1 ([8]; competitor 50 μM): 2.1 | SILAC ratio, Tmed1 ([8]; competitor 100 μM): 2.2 | SILAC ratio, EMD (O08579) ([9]; competitor 25 μM): 2.4 | SILAC ratio, Emd ([9]; competitor 10 μM): 1.8 | SILAC ratio, Emd ([9]; competitor 25 μM): 2.4 | SILAC ratio, Emd ([9]; competitor 50 μM): 2.5 | SILAC ratio, Emd ([9]; competitor 100 μM): 4.5

C=CCN(C)CCCCCCOc1ccc(C(=O)c2ccc(Br)cc2)c(F)c1 [Ro 48-8071, reference compound]
SILAC ratio Gaa ([1]; competitor 25 μM): 0.5 | SILAC ratio Dld ([2]; competitor 25 μM): 0.8 | SILAC ratio P4hb ([3]; competitor 25 μM): 1.0 | SILAC ratio Slc25a12 ([4]; competitor 25 μM): 1.0 | SILAC ratio, Atp2a2 ([5]; competitor 25 μM): 1.2 | SILAC ratio Ociad1 ([6]; competitor 25 μM): 1.0 | SILAC ratio Mpv17l2 ([7]; competitor 25 μM): 1.8 | SILAC ratio, Tmed1 ([8]; competitor 25 μM): 1.2 | SILAC ratio, EMD (O08579) ([9]; competitor 25 μM): 1.3 | SILAC ratio, Emd ([9]; competitor 25 μM): 1.3
